Data on 4 compounds can be found in US6147076A, “Analogues of N-acetylardeemin, method of preparation and uses thereof” (priority 1996, dated 2000).

Values joined by “and” are separate entries in the source; they are usually repeats but may differ in a detail not shown here. Equal entries are not always repeated. Where two headings read alike, the source gives them in different places.

Data set [1] relates to CCRF-CEM cells. Description: Two drug combination study of vinblastine and 5-N-acetylardeemin on CCRF-CEM, 72 hr, XTT assay. The class given is cell-based. The settings on record: Homo sapiens, Table 2, drug alone, read-out: Dm (median-effect concentration). From the text:
CCRF-CEM Cell Line at 72-HR Exposure Time. Based on XTT

Data set [2] concerns vinblastine-resistant CCRF-CEM cells (CCRF-CEM/VBL100). The experiment in a line: Two drug combination study of vinblastine and 5-N-acetylardeemin on vinblastine-resistant CCRF-CEM, 72 hr, XTT assay. The format is cell-based, human. The source says: Vinblastine-resistant CCRF-CEM Cell Line at 72-HR Exposure Time.
Based on XTT Assay. (large-scale study)
Background: Formazan colour is commonly taken as a measure of viable cells.

In data set [3] the test system is CCRF-CEM cells. The experiment in a line: IC50 of vinblastine in CCRF-CEM with/without MDR reversing agent. The format is cell-based. The settings on record: Homo sapiens, agent concentration added given in Table 6B, read-out: IC50 of VBL in the presence of reversing agent (A).
For a further data set, the system named is CCRF-CEM/VBL cells. The experiment in a line: IC50 of vinblastine in CCRF-CEM/VBL with/without MDR reversing agent. The class given is cell-based, human.
The next data set deals with CCRF-CEM/VBL100 cells. The note with it: human, ccrf-cem/vbl100 vs ccrf-cem.
Data set [4] deals with CCRF-CEM/VM-1 cells. The note with it: IC50 of VBL, CCRF-CEM/VM-1 to CCRF-CEM.
The test system of data set [5] is vinblastine-resistant CCRF-CEM cells (CCRF-CEM/VBL100). Description: Two drug combination study of vinblastine and 5-N-acetylardeemin on vinblastine-resistant CCRF-CEM, 72 hr, XTT assay. The format is cell-based, human. The arrangement: dose of drug at FA (drug alone): unit not given here. The settings on record: for Dose reduction index / dose of drug at FA (drug alone): Table 3.

The subject of data set [6] is CCRF-CEM/VM-1 cells. The experiment in a line: cells. The settings on record: Homo sapiens, read-out: IC50 of VBL in the presence of reversing agent (C).
Data set [7] deals with CCRF-CEM cells. The experiment in a line: Cytotoxicity / growth inhibition of CCRF-CEM leukemic cells. The settings on record: Homo sapiens, wild type CCRF-CEM.
Another data set has as its system P388/0 tumor. Description: Combination therapy of adriamycin, vinblastine and des-Me-N-acetyl-ardeemin in B6D2F1 mice bearing P388/0 tumor. The note with it: for Days survived: individual mice 1-5.
In a further data set the test system is P388/DX leukemic cells. The experiment in a line: Drug combination of adriamycin and 5-N-acetyl-ardeemin against P388/DX cell growth (XTT). The note with it: drug alone. The format is cell-based. From the text: | microplate, 25,000 cell/well, N = 2.
Another data set concerns DC-3F/ADII cells. Description: cells. The note with it: Mesocricetus auratus, DC3F.
The test system of the next data set is DC-3F hamster lung cells. Description: Cytotoxicity toward DC-3F hamster lung cells. The settings on record: Mesocricetus auratus, DC3F, read-out: IC50 for inhibiting cell growth, Table 7, DC-3F.
Another data set concerns P388/0. Description: Survival time evaluation for BDF mice bearing P388/0. The settings on record: for survival time: individual mice.
The next data set has as its system P388/DX. Description: Survival time evaluation for BDF mice bearing P388/DX. The note with it: for survival time: individual mice.
The test system of the next data set is P388 leukemic cells. The experiment in a line: Drug combination of adriamycin and 5-N-acetyl-ardeemin against P388 cell growth (XTT). The note with it: Mus musculus, P388, drug alone.
Another data set has as its system P388/O tumor. The experiment in a line: Combination therapy of adriamycin & 5-N-acetyl-ardeemin or verapamil in B6D2F1 mice bearing P388/O tumor.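 As to all read-outs here: male BDF mice carrying P388/O given intraperitoneally, dosing begun on day 1 on a QDX4, QWX2 schedule, five animals per dose level.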 The note with it: for Days survived: individual mice 1-5, listed as Adr.
A further data set has as its system P388/DX tumor. The experiment in a line: Combination therapy of adriamycin & 5-N-acetyl-ardeemin or verapamil in B6D2F1 mice bearing P388/DX tumor.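 As to all read-outs here: male BDF mice implanted intraperitoneally with P388/DX cells, 10^6 per mouse, dosed from day 1 on a QDX4, QWX2 schedule, five mice per dose group.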 The note with it: for Days survived: individual mice 1-5, listed as Adr.
The test system of the next data set is HCT116(VM)46 cells. Description: Cytotoxicity (XTT, 72 hr) in multidrug resistant HCT116(VM)46 cells. The class given is cell-based. The settings on record: IC50 HCT116(VM)46 / HCT116; 4320 min. On the procedure: All drug exposures were for 72 hr and cytotoxicity was measured by XTT tetrazolium dye assay.
Data set [8] addresses acyl CoA:cholesterol acyltransferase (ACAT). The note with it: read-out: Ki (with respect to oleoyl-CoA); cited from earlier work.
For the next data set, the system named is cultured macrophages. The settings on record: read-out: IC50, inhibition of cholesterol ester formation; cited from earlier work.

Excerpt for P388 leukemic cells: microplate, 15,000 cell/well, N = 2. Platting cells on day 1, add drugs o
day 2 and XTT assay on day 5.
Description for P388/0 tumor: ^a Male BDF mice were inoculated with P388/O, 10^6 cell/mouse,
i.p. on day 0; and started treatment on day 1, i.p., Q5Dx5, besides mice
with dose VBL 3.0 and VBL 3.0 mg/kg + DMNAA 50 mg/kg, only one injection
i.p., on day 1. There were five mice at every dose and ten in the control
Excerpt for P388/DX tumor: ^a Male BDF mice were inoculated P388/DX, 10^6 cells/mouse, i.p.
starting day 1, QDX4, QWX2. There were five mice at every dose and ten
Excerpt for P388/O tumor: ^a Male BDF mice were inoculated P388/O, 10^6 cells/mouse, i.p. a
starting day 1, QDX4, QWX2.

For `CC[C@]1(O)C[C@@H]2CN(CCc3c([nH]c4ccccc34)[C@@](C(=O)OC)(c3cc4c(cc3OC)N(C)[C@H]3[C@@](O)(C(=O)OC)[C@H](OC(C)=O)[C@]5(CC)C=CCN6CC[C@]43[C@@H]65)C2)C1` [Vinblastine], the IC50 in the data set with CCRF-CEM cells [1] was 1.68 nM; in data set [2] (Homo sapiens, CCRF-CEM, Table 4 (large-scale study), drug alone, read-out: Dm (median-effect concentration)), 393 nM; with CCRF-CEM cells [3], 0.83 nM; in the data set with CCRF-CEM/VBL cells (Homo sapiens, CCRF-CEM, agent concentration added given in Table 6B, read-out: IC50 of VBL in the presence of reversing agent (B)) it was 832 nM; in data set [5] (Homo sapiens, CCRF-CEM, Table 3, drug alone, read-out: Dm (median-effect concentration)), 371 nM; in the data set with CCRF-CEM/VM-1 cells [6], 0.45 nM. This compound returned an IC50 in the data set with CCRF-CEM cells [7] of 1.7 nM. Besides, in data set [2] (1:2000 ratio, at 98.4% inhibition), the “dose reduction in combination” value is 41 fold. Also, the “(b)/(a)” value in the data set on CCRF-CEM/VBL cells (IC50 of VBL, CCRF-CEM/VBL to CCRF-CEM) stood at 761. Moreover, in the data set with CCRF-CEM/VBL100 cells, the “resistance of CCRF-CEM/VBL100 compared with CCRF-CEM” value amounted to 220 fold. Moreover, the “(C)/(A)” value with CCRF-CEM/VM-1 cells [4] is 0.54. In addition, the values for the Dose reduction index in data set [5] (FA .9843), in data set [5] (FA .9861) and in data set [5] (FA .9898) were 41.85, 22.03 and 10.05, respectively. For the same compound, the “dose of drug at FA (drug alone)” value in [5] (FA .9843) worked out at 2.092; in data set [5] (FA .9861), 2.203; in [5] (FA .9898), 2.512. Further, the “% ILS” value with P388/0 tumor (VBL 3.0 mg/kg, one injection) is “+64%”. Besides, the Days survived in the data set with P388/0 tumor (VBL 3.0 mg/kg, one injection, listed as VBL) is 5.0 days and 6.0 days and 9.5 days and 15.5 days and 16.0 days. Further, the MST in the data set with P388/0 tumor (VBL 3.0 mg/kg, one injection, toxic deaths excluded) stood at 13.67 days. Further, in the data set on P388/0 tumor (VBL 3.0 mg/kg, day 5 and 6), the deaths of toxicity result is recorded as “Two mice died of toxicity of drug”.

Take `COc1cccc2c1C(=O)c1c(O)c3c(c(O)c1C2=O)C[C@@](O)(C(=O)CO)C[C@@H]3O[C@H]1C[C@H](N)[C@H](O)[C@H](C)O1` [Adriamycin, adriamycin]: the IC50 came out at 2140 nM in the data set with P388/DX leukemic cells; 380 nM in the data set on DC-3F/ADII cells (read-out: IC50 for inhibiting cell growth, Table 7, DC-3F/SDII); 30 nM in the data set on DC-3F hamster lung cells; 228 nM in the data set with P388 leukemic cells. Moreover, the “% ILS” value stood at 85% with P388/0 (adriamycin 0.333 mg/kg); 129% in the data set with P388/0 (adriamycin 1.0 mg/kg); 145% in the data set on P388/0 (adriamycin 3.0 mg/kg); 24% in the data set with P388/DX (adriamycin 0.333 mg/kg); 37% in the data set on P388/DX (adriamycin 1.0 mg/kg); 48% in the data set on P388/DX (adriamycin 3.0 mg/kg). Also, the “% ILS” value is “+128%” in the data set with P388/O tumor (Adr 0.5 mg/kg); “+152%” in the data set on P388/O tumor (Adr 1.0 mg/kg); “+178%” in the data set on P388/O tumor (Adr 2.0 mg/kg); “+181%” in the data set on P388/O tumor (Adr 3.0 mg/kg); “+49%” in the data set on P388/DX tumor (Adr. 0.5 mg/kg); “+75%” in the data set with P388/DX tumor (Adr. 1.0 mg/kg). Besides, the figures for the “% ILS” value in the data set with P388/DX tumor (Adr. 3.0 mg/kg), with P388/0 tumor (Adr. 3.0 mg/kg) and with P388/0 tumor (Adr. 5.0 mg/kg) were “+130%”, “+63%” and “+81%”, respectively. In addition, the MST in the data set with P388/0 (adriamycin 0.333 mg/kg) amounted to 13.75; in the data set with P388/0 (adriamycin 1.0 mg/kg), 17.0; with P388/0 (adriamycin 3.0 mg/kg), 18.19; with P388/DX (adriamycin 0.333 mg/kg), 9.0; in the data set with P388/DX (adriamycin 1.0 mg/kg), 9.75; with P388/DX (adriamycin 3.0 mg/kg), 10.75. Further, the MST in the data set with P388/O tumor (Adr 0.5 mg/kg) worked out at 17.3 days; with P388/O tumor (Adr 1.0 mg/kg) it was 19.1 days; in the data set on P388/O tumor (Adr 2.0 mg/kg), 21.1 days; with P388/O tumor (Adr 3.0 mg/kg) it was 19.8 days; with P388/DX tumor (Adr. 0.5 mg/kg), 11.3 days; in the data set on P388/DX tumor (Adr. 1.0 mg/kg), 13.25 days. The MST in the data set with P388/DX tumor (Adr. 2.0 mg/kg) stood at 15.55 days; with P388/DX tumor (Adr. 3.0 mg/kg) it was 17.4 days; in the data set on P388/0 tumor (Adr. 3.0 mg/kg) it was 13.60 days; in the data set with P388/0 tumor (Adr. 5.0 mg/kg), 15.10 days. The survival time in the data set on P388/0 (adriamycin 0.333 mg/kg) is 12.25 and 13.0 and 14.25 and 15.5; with P388/0 (adriamycin 1.0 mg/kg), 14.25 and 15.5 and 18.0 and 20.25; with P388/0 (adriamycin 3.0 mg/kg), 16.0 and 17.25 and 19.25 and 20.25; with P388/DX (adriamycin 0.333 mg/kg) it was 8.0 and 8.5 and 9.5 and 10.0; in the data set on P388/DX (adriamycin 1.0 mg/kg) it was 9.0 and 10.0 and 10.25 and 10.5; in the data set with P388/DX (adriamycin 3.0 mg/kg) it was 10.0 and 11.5 and 12.25. Besides, the Days survived in the data set with P388/O tumor (Adr 0.5 mg/kg) is 15.5 days and 16.0 days and 17.0 days and 18.0 days and 20.0 days; with P388/O tumor (Adr 1.0 mg/kg), 16.0 days and 19.0 days and 20.5 days and 21.0 days; in the data set with P388/O tumor (Adr 2.0 mg/kg), 19.0 days and 20.5 days and 21.0 days and 22.5 days; in the data set on P388/O tumor (Adr 3.0 mg/kg), 12.5 days and 16.0 days and 20.5 days and 24.6 days and 26.5 days; in the data set on P388/DX tumor (Adr. 0.5 mg/kg) it was 7.5 days and 10.5 days and 12.25 days and 14.0 days; with P388/DX tumor (Adr. 1.0 mg/kg), 11.5 days and 12.25 days and 13.25 days and 16.0 days. The Days survived with P388/DX tumor (Adr. 2.0 mg/kg) is 14.0 days and 15.0 days and 15.25 days and 16.5 days and 17.0 days; in the data set with P388/DX tumor (Adr. 3.0 mg/kg), 14.0 days and 17.5 days and 21.0 days; in the data set with P388/0 tumor (Adr. 3.0 mg/kg, listed as Adr.), 10.5 days and 13.5 days and 14.5 days and 15.0 days; in the data set on P388/0 tumor (Adr. 5.0 mg/kg, listed as Adr.) it was 10.5 days and 14.0 days and 16.0 days and 17.0 days and 18.0 days. Moreover, the deaths of toxicity result is “Two mice died of toxicity of drugs” in the data set on P388/O tumor (Adr 3.0 mg/kg, day 12.5 and 15); “Two mice died of toxicity of drugs” in the data set with P388/DX tumor (Adr. 3.0 mg/kg, day 14).

`CC(=O)O[C@H]1C(=O)[C@@]2(C)[C@H]([C@H](OC(=O)c3ccccc3)[C@]3(O)C[C@H](OC(=O)[C@H](O)[C@@H](NC(=O)c4ccccc4)c4ccccc4)C(C)=C1C3(C)C)[C@]1(OC(C)=O)CO[C@@H]1C[C@@H]2O` [paclitaxel]: in the data set on HCT116(VM)46 cells, the R/S ratio is 132.

For the compound `C=CC(C)(C)C12Nc3ccccc3C1(O)CC1C(=O)N3C(CC4(O)c5ccccc5NC34C(C)(C)C=C)C(=O)N12` (stereo not shown) [Gypsetin], the IC50 in the data set with DC-3F/ADII cells (read-out: IC50 for inhibiting cell growth) was 2250 nM; in the data set with cultured macrophages it was 650 nM; with DC-3F hamster lung cells, 3780 nM. In [8], the Ki (commonly a dissociation constant, usually derived from enzyme kinetics or from competition with a known ligand) was 5500 nM.
